ChEMBL document CHEMBL3091421, “Discovery of benzo[d]imidazo[5,1-b]thiazole as a new class of phosphodiesterase 10A inhibitors” (Bioorg Med Chem Lett, 2013)

Key:
[1] = test system: Rattus norvegicus; assay: Antipsychotic activity in Sprague-Dawley rat psychosis model assessed as inhibition of MK-801-induced stereotypy at 0.3 mg/kg, ip administered 5 mins prior to MK-801-challenge measured after 15 mins up to 1 hr relative to vehicle-treated control; type: functional; details: route intraperitoneal
[2] = species: Homo sapiens; assay: Selectivity ratio of IC50 for PDE1A (unknown origin) to IC50 for human recombinant PDE10A
[3] = test system: Rattus norvegicus; assay: Antipsychotic activity in Sprague-Dawley rat psychosis model assessed as inhibition of MK-801-induced stereotypy at 3 mg/kg, ip administered 5 mins prior to MK-801-challenge measured after 15 mins up to 1 hr relative to vehicle-treated control; type: functional; details: route intraperitoneal
[4] = Metabolic stability in human liver microsomes assessed as compound remaining after 60 mins; type: ADME; details: read-out: Stability
[5] = test system: Rattus norvegicus; assay: Antipsychotic activity in Sprague-Dawley rat psychosis model assessed as inhibition of MK-801-induced locomotion at 1 mg/kg, ip administered 5 mins prior to MK-801-challenge measured after 15 mins up to 1 hr relative to vehicle-treated control; type: functional; details: route intraperitoneal
[6] = test system: Rattus norvegicus; assay: Antipsychotic activity in Sprague-Dawley rat psychosis model assessed as inhibition of MK-801-induced ataxia at 3 mg/kg, ip administered 5 mins prior to MK-801-challenge measured after 15 mins up to 1 hr relative to vehicle-treated control; type: functional; details: route intraperitoneal
[7] = species: Homo sapiens; assay: Selectivity ratio of IC50 for PDE7A1 (unknown origin) to IC50 for human recombinant PDE10A
[8] = test system: Mus musculus; assay: Ratio of ED50 for antipsychotic activity in ip dosed CD-1 mouse assessed as reduction in apomorphine-induced sniffing behavior to ED50 for antipsychotic activity in ip dosed CD-1 mouse assessed as reduction in apomorphine-induced climbing behavior; type: functional
[9] = Drug uptake in Sprague-Dawley rat brain at 10 mg/kg, po after 30 mins; type: ADME, organism-based; design: dose 10 mg/kg, route oral; details: read-out: Drug uptake
[10] = test system: Rattus norvegicus; assay: Antipsychotic activity in Sprague-Dawley rat psychosis model assessed as inhibition of MK-801-induced ataxia at 6 mg/kg, ip administered 5 mins prior to MK-801-challenge measured after 15 mins up to 1 hr relative to vehicle-treated control; type: functional; details: route intraperitoneal
[11] = test system: Rattus norvegicus; assay: Antipsychotic activity in Sprague-Dawley rat conditioned avoidance response model assessed as reduction in avoidance at 1 mg/kg, ip after 15 mins relative to vehicle-treated control; type: functional; design: scale not given: the % may be the effect or the level left; details: route intraperitoneal
[12] = test system: Rattus norvegicus; assay: Antipsychotic activity in ip dosed Sprague-Dawley rat psychosis model assessed as inhibition of MK-801-induced stereotypy administered 5 mins prior to MK-801-challenge measured after 15 mins up to 1 hr relative to vehicle-treated control; type: functional, organism-based
[13] = biological target: 3',5'-cyclic-AMP phosphodiesterase 4D (Homo sapiens) (UniProt Q08499); assay: Inhibition of PDE4D (unknown origin) using cAMP as substrate at 10 uM after 30 mins
[14] = test system: Rattus norvegicus; assay: Antipsychotic activity in Sprague-Dawley rat psychosis model assessed as inhibition of MK-801-induced stereotypy at 10 mg/kg, ip administered 5 mins prior to MK-801-challenge measured after 15 mins up to 1 hr relative to vehicle-treated control; type: functional; details: route intraperitoneal
[15] = biological target: cGMP-inhibited 3',5'-cyclic phosphodiesterase 3A (Homo sapiens) (UniProt Q14432); assay: Inhibition of PDE3A (unknown origin) using cAMP as substrate at 10 uM after 30 mins by HTRF method
[16] = test system: Rattus norvegicus; assay: Antipsychotic activity in Sprague-Dawley rat assessed as reduction in quipazine-induced head-twitches at 1 mg/kg, ip administered 15 mins prior to quipazine-challenge measured immediately relative to vehicle-treated control; type: functional; design: scale not given: the % may be the effect or the level left; details: route intraperitoneal
[17] = test system: Rattus norvegicus; assay: Antipsychotic activity in ip dosed Sprague-Dawley rat psychosis model assessed as inhibition of MK-801-induced ataxia administered 5 mins prior to MK-801-challenge measured after 15 mins up to 1 hr relative to vehicle-treated control; type: functional, organism-based
[18] = test system: Rattus norvegicus; assay: Antipsychotic activity in Sprague-Dawley rat psychosis model assessed as inhibition of MK-801-induced ataxia at 10 mg/kg, ip administered 5 mins prior to MK-801-challenge measured after 15 mins up to 1 hr relative to vehicle-treated control; type: functional; details: route intraperitoneal
[19] = biological target: cAMP and cAMP-inhibited cGMP 3',5'-cyclic phosphodiesterase 10A (Homo sapiens, UniProt Q9Y233); assay: Inhibition of human recombinant PDE10A using [3H]-cAMP/[3H]-cGMP as substrate after 30 mins by radiometric assay
[20] = test system: Rattus norvegicus; assay: Antipsychotic activity in Sprague-Dawley rat conditioned avoidance response model assessed as reduction in avoidance at 3 mg/kg, ip after 15 mins relative to vehicle-treated control; type: functional; design: scale not given: the % may be the effect or the level left; details: route intraperitoneal
[21] = species: Homo sapiens; assay: Selectivity ratio of IC50 for PDE4D (unknown origin) to IC50 for human recombinant PDE10A
[22] = test system: Rattus norvegicus; assay: Antipsychotic activity in Sprague-Dawley rat psychosis model assessed as inhibition of MK-801-induced hyperlocomotion at 30 mg/kg, po administered 5 mins prior to MK-801-challenge measured after 15 mins up to 1 hr; type: functional
[23] = species: Homo sapiens; assay: Selectivity ratio of IC50 for PDE9A2 (unknown origin) to IC50 for human recombinant PDE10A
[24] = species: Homo sapiens; assay: Selectivity ratio of IC50 for PDE3A (unknown origin) to IC50 for human recombinant PDE10A
[25] = species: Homo sapiens; assay: Selectivity ratio of IC50 for PDE2A (unknown origin) to IC50 for human recombinant PDE10A
[26] = test system: Rattus norvegicus; assay: Antipsychotic activity in Sprague-Dawley rat conditioned avoidance response model assessed as reduction in avoidance at 6 mg/kg, ip after 15 mins relative to vehicle-treated control; type: functional; design: scale not given: the % may be the effect or the level left; details: route intraperitoneal
[27] = biological target: High affinity cAMP-specific and IBMX-insensitive 3',5'-cyclic phosphodiesterase 8A (Homo sapiens) (UniProt O60658); assay: Inhibition of PDE8A (unknown origin) using [3H]-cAMP as substrate at 10 uM after 30 mins by radiometric assay
[28] = species: Homo sapiens; assay: Selectivity ratio of IC50 for PDE5A (unknown origin) to IC50 for human recombinant PDE10A
[29] = biological target: High affinity cGMP-specific 3',5'-cyclic phosphodiesterase 9A (Homo sapiens) (UniProt O76083); assay: Inhibition of PDE9A2 (unknown origin) using [3H]-cGMP as substrate at 10 uM after 30 mins by radiometric assay
[30] = test system: Rattus norvegicus; assay: Antipsychotic activity in Sprague-Dawley rat psychosis model assessed as inhibition of MK-801-induced ataxia at 1 mg/kg, ip administered 5 mins prior to MK-801-challenge measured after 15 mins up to 1 hr relative to vehicle-treated control; type: functional; details: route intraperitoneal
[31] = test system: Rattus norvegicus; assay: Antipsychotic activity in Sprague-Dawley rat psychosis model assessed as inhibition of MK-801-induced hyperlocomotion at 10 mg/kg, ip administered 5 mins prior to MK-801-challenge measured after 15 mins up to 1 hr; type: functional; details: route intraperitoneal
[32] = test system: Mus musculus; assay: Antipsychotic activity in ip dosed CD-1 mouse assessed as reduction in apomorphine-induced climbing behavior administered 15 mins prior to apomorphine-challenge measured immediately relative to vehicle-treated control; type: functional; details: CD-1, ip
[33] = species: Homo sapiens; assay: Selectivity ratio of IC50 for PDE11A (unknown origin) to IC50 for human recombinant PDE10A

3',5'-cyclic-AMP phosphodiesterase 4D (Homo sapiens), sequence (Q08499 whole entry): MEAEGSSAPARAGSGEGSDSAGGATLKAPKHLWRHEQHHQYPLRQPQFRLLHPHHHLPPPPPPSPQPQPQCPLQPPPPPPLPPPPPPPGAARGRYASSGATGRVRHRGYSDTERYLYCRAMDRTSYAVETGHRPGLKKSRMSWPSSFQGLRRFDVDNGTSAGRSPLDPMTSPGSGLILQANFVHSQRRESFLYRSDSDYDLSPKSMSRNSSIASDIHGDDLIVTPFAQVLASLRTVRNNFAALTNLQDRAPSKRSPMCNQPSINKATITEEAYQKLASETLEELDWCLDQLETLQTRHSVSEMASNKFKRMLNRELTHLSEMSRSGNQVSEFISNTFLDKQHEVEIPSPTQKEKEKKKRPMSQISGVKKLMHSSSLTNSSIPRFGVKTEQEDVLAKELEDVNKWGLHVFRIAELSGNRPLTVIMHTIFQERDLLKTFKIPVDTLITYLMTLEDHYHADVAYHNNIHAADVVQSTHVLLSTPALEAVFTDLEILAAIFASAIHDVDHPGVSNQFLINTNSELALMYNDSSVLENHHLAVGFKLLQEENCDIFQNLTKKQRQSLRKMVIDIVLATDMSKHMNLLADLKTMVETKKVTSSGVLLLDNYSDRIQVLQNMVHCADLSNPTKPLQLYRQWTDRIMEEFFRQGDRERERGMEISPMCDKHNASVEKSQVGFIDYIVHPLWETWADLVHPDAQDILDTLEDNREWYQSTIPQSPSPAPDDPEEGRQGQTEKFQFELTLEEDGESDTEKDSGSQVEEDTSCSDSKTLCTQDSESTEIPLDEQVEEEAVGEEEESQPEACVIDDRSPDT
cGMP-inhibited 3',5'-cyclic phosphodiesterase 3A (Homo sapiens), sequence (Q14432 whole entry): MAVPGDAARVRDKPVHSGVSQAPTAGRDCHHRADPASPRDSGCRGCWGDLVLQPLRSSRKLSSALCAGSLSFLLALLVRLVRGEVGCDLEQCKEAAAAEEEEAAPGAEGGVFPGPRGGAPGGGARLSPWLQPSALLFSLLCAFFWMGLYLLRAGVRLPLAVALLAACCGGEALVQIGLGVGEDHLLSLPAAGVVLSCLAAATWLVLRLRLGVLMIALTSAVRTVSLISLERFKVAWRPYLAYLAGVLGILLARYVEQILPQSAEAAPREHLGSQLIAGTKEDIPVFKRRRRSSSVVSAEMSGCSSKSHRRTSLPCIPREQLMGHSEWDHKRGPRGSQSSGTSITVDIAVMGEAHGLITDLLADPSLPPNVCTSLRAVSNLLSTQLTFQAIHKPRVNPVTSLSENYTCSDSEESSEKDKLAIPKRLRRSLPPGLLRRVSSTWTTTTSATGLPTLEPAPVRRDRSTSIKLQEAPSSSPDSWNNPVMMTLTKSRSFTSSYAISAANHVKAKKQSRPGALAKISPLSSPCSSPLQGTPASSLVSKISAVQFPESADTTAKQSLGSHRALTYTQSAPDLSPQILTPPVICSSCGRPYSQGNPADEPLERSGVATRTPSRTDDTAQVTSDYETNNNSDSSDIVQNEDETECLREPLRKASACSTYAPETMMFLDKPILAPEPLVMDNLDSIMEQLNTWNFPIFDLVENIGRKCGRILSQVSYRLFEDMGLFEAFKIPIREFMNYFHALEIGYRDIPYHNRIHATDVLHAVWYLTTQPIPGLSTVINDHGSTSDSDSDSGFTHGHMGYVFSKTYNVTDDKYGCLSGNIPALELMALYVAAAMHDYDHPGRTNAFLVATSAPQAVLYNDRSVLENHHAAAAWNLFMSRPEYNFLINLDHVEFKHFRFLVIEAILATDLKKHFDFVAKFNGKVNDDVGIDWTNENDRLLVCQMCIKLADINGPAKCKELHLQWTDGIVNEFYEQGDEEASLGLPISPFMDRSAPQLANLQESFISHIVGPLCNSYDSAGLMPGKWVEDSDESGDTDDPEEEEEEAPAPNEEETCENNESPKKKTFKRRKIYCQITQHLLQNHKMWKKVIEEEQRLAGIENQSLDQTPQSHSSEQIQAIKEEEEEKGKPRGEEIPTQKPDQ
High affinity cGMP-specific 3',5'-cyclic phosphodiesterase 9A (Homo sapiens), sequence (O76083 whole entry): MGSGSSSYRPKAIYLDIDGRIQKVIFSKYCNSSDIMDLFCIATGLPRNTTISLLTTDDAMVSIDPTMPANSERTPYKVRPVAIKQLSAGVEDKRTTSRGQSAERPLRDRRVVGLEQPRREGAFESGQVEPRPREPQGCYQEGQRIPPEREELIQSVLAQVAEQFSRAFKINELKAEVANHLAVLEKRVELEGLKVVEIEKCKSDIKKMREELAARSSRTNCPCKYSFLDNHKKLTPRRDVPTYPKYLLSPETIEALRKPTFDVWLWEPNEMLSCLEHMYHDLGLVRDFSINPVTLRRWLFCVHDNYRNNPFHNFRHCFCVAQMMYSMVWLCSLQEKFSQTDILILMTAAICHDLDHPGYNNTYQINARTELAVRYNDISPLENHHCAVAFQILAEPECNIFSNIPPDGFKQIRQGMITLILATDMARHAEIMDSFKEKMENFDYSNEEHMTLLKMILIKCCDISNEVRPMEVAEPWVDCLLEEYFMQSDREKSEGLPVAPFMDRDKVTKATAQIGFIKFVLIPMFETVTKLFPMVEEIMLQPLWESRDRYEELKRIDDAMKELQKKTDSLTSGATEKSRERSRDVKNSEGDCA
High affinity cAMP-specific and IBMX-insensitive 3',5'-cyclic phosphodiesterase 8A (Homo sapiens), sequence (O60658 whole entry): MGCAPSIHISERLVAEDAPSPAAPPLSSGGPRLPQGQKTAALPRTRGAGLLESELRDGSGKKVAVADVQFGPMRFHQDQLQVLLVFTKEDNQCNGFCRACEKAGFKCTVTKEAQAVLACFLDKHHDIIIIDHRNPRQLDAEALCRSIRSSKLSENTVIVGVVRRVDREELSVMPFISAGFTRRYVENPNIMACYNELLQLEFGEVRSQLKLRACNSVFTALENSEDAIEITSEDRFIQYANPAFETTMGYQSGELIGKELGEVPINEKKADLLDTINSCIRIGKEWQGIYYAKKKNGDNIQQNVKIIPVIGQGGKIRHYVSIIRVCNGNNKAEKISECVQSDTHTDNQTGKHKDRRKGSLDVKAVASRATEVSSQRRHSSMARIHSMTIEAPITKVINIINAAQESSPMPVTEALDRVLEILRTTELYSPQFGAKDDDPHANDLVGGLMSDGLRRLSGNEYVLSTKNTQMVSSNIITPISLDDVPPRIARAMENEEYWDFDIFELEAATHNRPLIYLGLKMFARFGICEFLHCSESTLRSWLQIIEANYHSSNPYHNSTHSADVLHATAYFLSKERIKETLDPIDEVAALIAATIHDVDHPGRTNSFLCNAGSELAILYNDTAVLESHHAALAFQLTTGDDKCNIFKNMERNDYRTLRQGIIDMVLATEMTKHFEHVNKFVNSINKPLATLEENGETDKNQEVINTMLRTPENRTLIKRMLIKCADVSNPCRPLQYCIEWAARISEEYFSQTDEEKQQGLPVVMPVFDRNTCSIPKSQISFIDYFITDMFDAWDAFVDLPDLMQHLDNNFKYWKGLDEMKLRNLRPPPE
cAMP and cAMP-inhibited cGMP 3',5'-cyclic phosphodiesterase 10A, sequence (Q9Y233 whole entry): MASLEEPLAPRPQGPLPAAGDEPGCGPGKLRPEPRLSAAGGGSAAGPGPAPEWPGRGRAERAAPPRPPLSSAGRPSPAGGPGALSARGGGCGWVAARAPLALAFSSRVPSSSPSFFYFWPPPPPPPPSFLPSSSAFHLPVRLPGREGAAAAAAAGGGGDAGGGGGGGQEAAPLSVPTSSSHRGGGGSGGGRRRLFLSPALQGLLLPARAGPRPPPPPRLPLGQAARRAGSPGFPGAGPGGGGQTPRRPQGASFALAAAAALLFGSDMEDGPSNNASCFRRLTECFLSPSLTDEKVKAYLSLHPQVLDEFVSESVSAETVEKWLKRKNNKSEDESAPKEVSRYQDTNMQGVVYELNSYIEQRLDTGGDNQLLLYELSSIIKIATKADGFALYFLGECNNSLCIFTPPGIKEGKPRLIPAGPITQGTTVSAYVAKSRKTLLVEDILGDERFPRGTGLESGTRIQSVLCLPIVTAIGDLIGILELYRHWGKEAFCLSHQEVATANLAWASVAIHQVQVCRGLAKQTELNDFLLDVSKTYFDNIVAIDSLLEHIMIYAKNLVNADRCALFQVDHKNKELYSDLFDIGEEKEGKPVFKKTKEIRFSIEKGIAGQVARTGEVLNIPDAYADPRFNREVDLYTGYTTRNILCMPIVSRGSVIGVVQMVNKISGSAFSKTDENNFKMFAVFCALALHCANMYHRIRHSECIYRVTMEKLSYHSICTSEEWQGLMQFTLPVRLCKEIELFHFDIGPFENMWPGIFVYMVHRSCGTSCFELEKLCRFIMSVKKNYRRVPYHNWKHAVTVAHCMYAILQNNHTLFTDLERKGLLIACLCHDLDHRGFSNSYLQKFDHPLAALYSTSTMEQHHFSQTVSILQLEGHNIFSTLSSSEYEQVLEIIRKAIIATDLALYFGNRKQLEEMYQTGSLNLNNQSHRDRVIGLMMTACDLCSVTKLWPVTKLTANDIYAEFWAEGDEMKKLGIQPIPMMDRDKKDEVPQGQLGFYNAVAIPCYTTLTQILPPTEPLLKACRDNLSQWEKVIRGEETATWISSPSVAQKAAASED

Ratio IC50 [2]: > 500
remaining at 1 h [4]: 57%
Ratio IC50 [7]: > 500
concentration at 0.5 h [9]: 672 ng/g
inhibition [13]: 0%
inhibition [15]: 11.3%
IC50 [19]: 7.45 nM
Ratio IC50 [21]: > 500
Ratio IC50 [23]: > 500
Ratio IC50 [24]: > 500
Ratio IC50 [25]: > 500
inhibition [27]: 18.5%
Ratio IC50 [28]: > 500
inhibition [29]: 16.5%
Ratio IC50 [33]: > 500
SMILES: Cc1nc(C2CCOCC2)n2c1sc1cc(OCc3ccc4ccccc4n3)ccc12
inhibition in vivo at 0.3 mg/kg [1]: 58%
inhibition in vivo at 3 mg/kg [3]: 27%
inhibition in vivo at 1 mg/kg [5]: 41%
inhibition in vivo at 3 mg/kg [6]: 56%
Ratio ED50 [8]: 6.08
inhibition in vivo at 6 mg/kg [10]: 46%
Activity [11]: 26%
inhibition [12]: Dose-dependent effect
inhibition in vivo at 10 mg/kg [14]: 66%
Activity [16]: 47%
inhibition [17]: Dose-dependent effect
inhibition in vivo at 10 mg/kg [18]: 82%
Activity [20]: 67%
inhibition in vivo at 30 mg/kg [22]: 75%
Activity [26]: 94%
inhibition in vivo at 1 mg/kg [30]: 10%
inhibition in vivo at 10 mg/kg [31]: 92%
ED50 [32]: 2.68 mg/kg
